Laboratory results as given in ChEMBL document CHEMBL5338720, “Targeting σ2R/TMEM97 with novel aminotetralins” (Eur J Med Chem, 2022).

Assays:
[1] = molecular target: T1, Sigma intracellular receptor 2 (Rattus norvegicus, UniProt Q5U3Y7); experiment: Displacement of [3H]-ditolylguanidine from sigma 2 receptor/TMEM97 in rat PC-12 cells assessed as inhibition constant in the presence of (+)-pentazocine by competition binding assay; format: cell-based
T1 sequence (Q5U3Y7 whole entry): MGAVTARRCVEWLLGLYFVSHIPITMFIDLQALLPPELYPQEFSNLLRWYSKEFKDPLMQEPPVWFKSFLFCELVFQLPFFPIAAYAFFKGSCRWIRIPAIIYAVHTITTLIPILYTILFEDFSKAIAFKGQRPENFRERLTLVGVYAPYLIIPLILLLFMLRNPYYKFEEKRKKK

[2] = molecular target: Sigma non-opioid intracellular receptor 1 (Cavia porcellus, UniProt Q60492); experiment: Displacement of [3H](+)-pentazocine from sigma 1 receptor in guinea pig brain assessed as inhibition constant by competition binding assay; format: tissue-based
Chain of Sigma non-opioid intracellular receptor 1 (Cavia porcellus, UniProt Q60492) (Q60492 whole entry): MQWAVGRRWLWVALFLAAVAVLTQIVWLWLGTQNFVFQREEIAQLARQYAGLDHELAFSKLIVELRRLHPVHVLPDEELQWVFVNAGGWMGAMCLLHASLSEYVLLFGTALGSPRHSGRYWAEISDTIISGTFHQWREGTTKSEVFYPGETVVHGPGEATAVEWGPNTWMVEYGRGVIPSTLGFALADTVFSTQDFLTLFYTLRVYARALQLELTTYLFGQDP

[3] = Selectivity ratio of Ki for displacement of [3H](+)-pentazocine from sigma 1 receptor in guinea pig brain to Ki for displacement of [3H]-ditolylguanidine from sigma 2 receptor/TMEM97 in rat PC-12 cells; format: cell-based
[4] = molecular target: T2, Sigma intracellular receptor 2 (Homo sapiens, UniProt Q5BJF2); experiment: Displacement of [3H]-ditolylguanidine from human sigma 2 receptor/TMEM97 transfected in HEK293 cells assessed as inhibition constant in the presence of (+)-pentazocine by competition binding assay; format: cell-based
T2 sequence (Q5BJF2 whole entry): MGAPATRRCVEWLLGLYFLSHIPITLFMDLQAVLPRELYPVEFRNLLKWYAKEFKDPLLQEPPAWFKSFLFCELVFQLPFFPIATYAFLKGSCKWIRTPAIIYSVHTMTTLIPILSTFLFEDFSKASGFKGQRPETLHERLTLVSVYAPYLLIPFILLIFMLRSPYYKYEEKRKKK

[5] = molecular target: Sodium-dependent noradrenaline transporter (Homo sapiens, UniProt P23975); experiment: Binding affinity at human Norepinephrine transporter assessed as inhibition constant
Chain of Sodium-dependent noradrenaline transporter (P23975 whole entry): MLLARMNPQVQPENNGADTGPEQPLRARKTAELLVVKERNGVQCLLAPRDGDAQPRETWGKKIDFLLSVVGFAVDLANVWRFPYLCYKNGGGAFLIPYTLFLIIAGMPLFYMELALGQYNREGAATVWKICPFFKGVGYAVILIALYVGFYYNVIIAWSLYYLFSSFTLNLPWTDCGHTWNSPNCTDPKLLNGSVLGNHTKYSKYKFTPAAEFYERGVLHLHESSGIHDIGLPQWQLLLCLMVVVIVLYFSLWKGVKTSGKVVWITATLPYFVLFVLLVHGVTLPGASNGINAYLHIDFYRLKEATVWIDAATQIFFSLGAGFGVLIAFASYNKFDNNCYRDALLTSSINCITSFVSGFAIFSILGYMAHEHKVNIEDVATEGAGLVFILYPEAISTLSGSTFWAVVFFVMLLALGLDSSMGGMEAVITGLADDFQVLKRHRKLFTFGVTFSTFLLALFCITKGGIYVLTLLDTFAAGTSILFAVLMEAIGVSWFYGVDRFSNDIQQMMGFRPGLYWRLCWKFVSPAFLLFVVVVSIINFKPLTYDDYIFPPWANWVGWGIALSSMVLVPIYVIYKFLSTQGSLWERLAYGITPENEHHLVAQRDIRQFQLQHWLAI

[6] = molecular target: Mu-type opioid receptor (Homo sapiens, UniProt P35372); experiment: Binding affinity at human MOR assessed as inhibition constant
[7] = molecular target: Muscarinic acetylcholine receptor M4 (Homo sapiens, UniProt P08173); experiment: Binding affinity at human muscarinic M4 receptor assessed as inhibition constant
[8] = molecular target: Muscarinic acetylcholine receptor M3 (Homo sapiens, UniProt P20309); experiment: Binding affinity at human muscarinic M3 receptor assessed as inhibition constant
Chain of Muscarinic acetylcholine receptor M3 (P20309 whole entry): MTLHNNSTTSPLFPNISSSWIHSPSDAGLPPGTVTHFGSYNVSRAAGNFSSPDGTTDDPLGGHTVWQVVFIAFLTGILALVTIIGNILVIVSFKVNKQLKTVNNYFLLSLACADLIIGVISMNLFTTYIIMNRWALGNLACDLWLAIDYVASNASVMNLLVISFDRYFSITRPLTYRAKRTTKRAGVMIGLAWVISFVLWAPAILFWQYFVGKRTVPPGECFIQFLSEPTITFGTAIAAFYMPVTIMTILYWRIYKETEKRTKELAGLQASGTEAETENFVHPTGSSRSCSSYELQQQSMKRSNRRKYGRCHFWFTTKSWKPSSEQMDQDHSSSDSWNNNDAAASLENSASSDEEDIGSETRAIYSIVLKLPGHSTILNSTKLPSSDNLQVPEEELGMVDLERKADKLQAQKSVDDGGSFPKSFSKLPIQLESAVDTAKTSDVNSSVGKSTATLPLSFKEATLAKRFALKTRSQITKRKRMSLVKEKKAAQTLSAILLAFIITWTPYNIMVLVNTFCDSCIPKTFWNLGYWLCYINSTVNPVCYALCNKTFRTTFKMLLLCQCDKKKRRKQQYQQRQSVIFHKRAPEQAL

[9] = molecular target: Muscarinic acetylcholine receptor M2 (Homo sapiens, UniProt P08172); experiment: Binding affinity at human muscarinic M2 receptor assessed as inhibition constant
Chain of Muscarinic acetylcholine receptor M2 (P08172 whole entry): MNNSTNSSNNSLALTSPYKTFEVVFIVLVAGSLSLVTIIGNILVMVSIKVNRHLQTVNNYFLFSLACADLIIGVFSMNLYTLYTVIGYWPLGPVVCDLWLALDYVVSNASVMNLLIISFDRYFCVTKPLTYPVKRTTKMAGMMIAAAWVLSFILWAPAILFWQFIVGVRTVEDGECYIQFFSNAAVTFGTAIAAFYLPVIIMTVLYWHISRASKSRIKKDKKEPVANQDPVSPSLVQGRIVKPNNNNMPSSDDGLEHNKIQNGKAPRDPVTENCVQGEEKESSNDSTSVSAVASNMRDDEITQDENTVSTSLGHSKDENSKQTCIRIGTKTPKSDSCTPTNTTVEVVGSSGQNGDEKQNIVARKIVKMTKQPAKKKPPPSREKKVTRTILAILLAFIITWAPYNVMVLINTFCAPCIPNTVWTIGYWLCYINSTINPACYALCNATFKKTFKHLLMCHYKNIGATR

[10] = molecular target: Muscarinic acetylcholine receptor M1 (Homo sapiens, UniProt P11229); experiment: Binding affinity at human muscarinic M1 receptor assessed as inhibition constant
Chain of Muscarinic acetylcholine receptor M1 (P11229 whole entry): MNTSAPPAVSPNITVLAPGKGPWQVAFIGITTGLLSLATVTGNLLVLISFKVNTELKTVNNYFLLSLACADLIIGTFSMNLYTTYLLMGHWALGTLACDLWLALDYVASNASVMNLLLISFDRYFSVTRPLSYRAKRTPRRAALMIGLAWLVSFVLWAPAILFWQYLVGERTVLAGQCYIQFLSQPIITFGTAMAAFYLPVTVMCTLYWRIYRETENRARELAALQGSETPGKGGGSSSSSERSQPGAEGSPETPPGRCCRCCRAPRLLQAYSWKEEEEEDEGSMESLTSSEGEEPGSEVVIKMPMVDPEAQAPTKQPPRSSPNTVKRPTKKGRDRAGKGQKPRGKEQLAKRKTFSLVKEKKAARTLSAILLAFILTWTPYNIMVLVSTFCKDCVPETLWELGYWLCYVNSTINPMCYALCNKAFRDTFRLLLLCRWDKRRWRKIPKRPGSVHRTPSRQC

[11] = molecular target: Kappa-type opioid receptor (Homo sapiens, UniProt P41145); experiment: Binding affinity at human KOR assessed as inhibition constant
[12] = molecular target: GABA-A receptor; anion channel; experiment: Binding affinity at human GABA A receptor assessed as inhibition constant; format: protein-complex assay
[13] = molecular target: Beta-2 adrenergic receptor (Homo sapiens, UniProt P07550); experiment: Binding affinity to human beta 2 adrenergic receptor assessed as inhibition constant
[14] = molecular target: Beta-1 adrenergic receptor (Homo sapiens, UniProt P08588); experiment: Binding affinity to human beta 1 adrenergic receptor assessed as inhibition constant
Chain of Beta-1 adrenergic receptor (P08588 whole entry): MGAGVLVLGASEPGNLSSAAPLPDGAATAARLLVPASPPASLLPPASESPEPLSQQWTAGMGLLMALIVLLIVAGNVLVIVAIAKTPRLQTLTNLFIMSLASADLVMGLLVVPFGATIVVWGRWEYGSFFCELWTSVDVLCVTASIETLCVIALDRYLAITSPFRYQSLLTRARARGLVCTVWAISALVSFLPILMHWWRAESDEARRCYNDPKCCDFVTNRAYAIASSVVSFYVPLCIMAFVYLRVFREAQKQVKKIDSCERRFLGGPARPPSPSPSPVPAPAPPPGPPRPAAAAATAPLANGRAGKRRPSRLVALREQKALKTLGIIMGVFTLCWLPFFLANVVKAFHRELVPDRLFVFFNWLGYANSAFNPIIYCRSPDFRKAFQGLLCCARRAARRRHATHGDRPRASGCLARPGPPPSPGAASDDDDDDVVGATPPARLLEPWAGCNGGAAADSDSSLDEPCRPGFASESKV

[15] = molecular target: Alpha-2C adrenergic receptor (Homo sapiens, UniProt P18825); experiment: Binding affinity to human alpha 2C adrenergic receptor assessed as inhibition constant
Chain of Alpha-2C adrenergic receptor (P18825 whole entry): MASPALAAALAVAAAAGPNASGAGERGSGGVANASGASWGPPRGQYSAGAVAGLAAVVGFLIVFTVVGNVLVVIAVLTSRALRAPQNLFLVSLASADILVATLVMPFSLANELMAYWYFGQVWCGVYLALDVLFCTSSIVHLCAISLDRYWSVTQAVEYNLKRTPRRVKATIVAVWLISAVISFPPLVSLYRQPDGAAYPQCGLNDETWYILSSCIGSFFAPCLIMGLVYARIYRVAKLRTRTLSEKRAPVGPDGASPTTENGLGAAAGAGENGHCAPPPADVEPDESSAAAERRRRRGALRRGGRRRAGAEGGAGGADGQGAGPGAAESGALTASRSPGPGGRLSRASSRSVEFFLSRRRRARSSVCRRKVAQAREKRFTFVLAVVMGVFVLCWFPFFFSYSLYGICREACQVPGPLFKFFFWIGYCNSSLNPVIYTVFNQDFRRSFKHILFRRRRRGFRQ

[16] = molecular target: Delta-type opioid receptor (Homo sapiens, UniProt P41143); experiment: Binding affinity at human DOR assessed as inhibition constant
[17] = molecular target: Alpha-1B adrenergic receptor (Homo sapiens, UniProt P35368); experiment: Binding affinity to human alpha 1B adrenergic receptor assessed as inhibition constant
[18] = molecular target: D(2) dopamine receptor (Homo sapiens, UniProt P14416); experiment: Binding affinity to human dopamine D2 receptor assessed as inhibition constant
Chain of D(2) dopamine receptor (P14416 whole entry): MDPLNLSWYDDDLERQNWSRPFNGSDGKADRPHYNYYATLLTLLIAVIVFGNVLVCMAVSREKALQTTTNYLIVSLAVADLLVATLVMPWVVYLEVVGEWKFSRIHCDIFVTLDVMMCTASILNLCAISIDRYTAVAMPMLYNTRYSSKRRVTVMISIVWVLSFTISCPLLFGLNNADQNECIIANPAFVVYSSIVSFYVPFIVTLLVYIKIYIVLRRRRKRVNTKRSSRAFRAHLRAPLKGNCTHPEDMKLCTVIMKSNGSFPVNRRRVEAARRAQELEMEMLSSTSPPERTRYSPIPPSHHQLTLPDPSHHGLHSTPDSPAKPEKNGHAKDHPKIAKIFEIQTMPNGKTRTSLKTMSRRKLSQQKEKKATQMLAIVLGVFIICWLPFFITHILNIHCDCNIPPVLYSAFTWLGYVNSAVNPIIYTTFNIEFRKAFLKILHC

[19] = Binding affinity to human Ca2+ ion channel assessed as inhibition constant
[20] = molecular target: Serotonin 3 (5-HT3) receptor; experiment: Binding affinity to human 5HT3 receptor assessed as inhibition constant; format: protein-complex assay
[21] = molecular target: Beta-3 adrenergic receptor (Homo sapiens, UniProt P13945); experiment: Binding affinity to human beta 3 adrenergic receptor assessed as inhibition constant
Chain of Beta-3 adrenergic receptor (P13945 whole entry): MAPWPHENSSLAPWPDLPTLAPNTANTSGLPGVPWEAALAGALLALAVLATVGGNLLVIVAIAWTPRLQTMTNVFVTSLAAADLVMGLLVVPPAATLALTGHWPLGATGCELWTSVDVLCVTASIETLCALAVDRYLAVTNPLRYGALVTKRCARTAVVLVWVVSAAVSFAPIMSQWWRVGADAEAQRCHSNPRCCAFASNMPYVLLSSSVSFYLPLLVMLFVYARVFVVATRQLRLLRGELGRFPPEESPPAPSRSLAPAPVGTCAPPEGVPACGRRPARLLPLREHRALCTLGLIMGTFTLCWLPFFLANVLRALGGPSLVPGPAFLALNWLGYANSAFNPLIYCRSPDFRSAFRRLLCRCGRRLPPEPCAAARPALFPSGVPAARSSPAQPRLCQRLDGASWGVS

[22] = molecular target: 5-hydroxytryptamine receptor 1E (Homo sapiens, UniProt P28566); experiment: Binding affinity to human 5HT1E receptor assessed as inhibition constant
Chain of 5-hydroxytryptamine receptor 1E (P28566 whole entry): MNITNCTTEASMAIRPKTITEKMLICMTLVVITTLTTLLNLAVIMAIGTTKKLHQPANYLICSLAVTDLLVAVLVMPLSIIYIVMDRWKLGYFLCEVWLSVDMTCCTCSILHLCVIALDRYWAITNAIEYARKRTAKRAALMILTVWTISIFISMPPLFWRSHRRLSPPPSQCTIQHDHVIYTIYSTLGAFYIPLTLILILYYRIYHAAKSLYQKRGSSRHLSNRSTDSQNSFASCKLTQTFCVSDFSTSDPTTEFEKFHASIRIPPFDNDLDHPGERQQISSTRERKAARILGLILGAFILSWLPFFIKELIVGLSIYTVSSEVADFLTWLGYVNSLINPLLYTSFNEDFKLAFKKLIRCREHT

[23] = Selectivity ratio of Ki for displacement of [3H]-ditolylguanidine from human sigma 2 receptor/TMEM97 transfected in HEK293 cells to Ki for displacement of [3H]-ditolylguanidine from sigma 2 receptor/TMEM97 in rat PC-12 cells; format: cell-based
[24] = Selectivity ratio of Ki for displacement of [3H](+)-pentazocine from sigma 1 receptor in guinea pig brain to Ki for displacement of [3H](+)-pentazocine from human sigma 1 receptor transfected in HEK293 cells; format: cell-based
[25] = molecular target: T3, Sigma non-opioid intracellular receptor 1 (Homo sapiens, UniProt Q99720); experiment: Displacement of [3H](+)-pentazocine from human sigma 1 receptor transfected in HEK293 cells assessed as inhibition constant by competition binding assay; format: cell-based
T3 sequence (Q99720 whole entry): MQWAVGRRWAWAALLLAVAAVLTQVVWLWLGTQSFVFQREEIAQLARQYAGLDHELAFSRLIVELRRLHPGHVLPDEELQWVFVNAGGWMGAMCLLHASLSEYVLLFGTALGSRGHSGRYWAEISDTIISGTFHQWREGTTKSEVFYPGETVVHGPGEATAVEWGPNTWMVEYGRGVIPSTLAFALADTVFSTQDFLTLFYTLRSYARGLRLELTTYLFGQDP

[26] = molecular target: Translocator protein (Homo sapiens, UniProt P30536); experiment: Binding affinity at human PBR assessed as inhibition constant
[27] = molecular target: Sodium-dependent serotonin transporter (Homo sapiens, UniProt P31645); experiment: Binding affinity at human SERT assessed as inhibition constant
[28] = Half-life in mouse at 10 mg/kg, ip; format: ADME, organism-based; conditions: in vivo
[29] = Drug concentration in mouse brain at 10 mg/kg, ip measured after 4 hrs; format: ADME, organism-based; conditions: read-out: Ct
[30] = Ratio of drug concentration in mouse brain to plasma at 10 mg/kg, ip measured after 4 hrs; format: ADME, organism-based; conditions: read-out: BPR
[31] = Ratio of unbound drug concentration in mouse brain to plasma at 10 mg/kg, ip measured after 4 hrs; format: ADME, organism-based; conditions: read-out: K(p,uu,brain)
[32] = test system: P-glycoprotein (MDR1); experiment: Efflux ratio of permeability in MDCK-MDR1 cells expressing P-glycoprotein; format: ADME, cell-based, Canis lupus familiaris; conditions: dog
[33] = molecular target: T2, Sigma intracellular receptor 2; experiment: Binding affinity to sigma 2 receptor/TMEM97 (unknown origin) assessed as inhibition constant
[34] = molecular target: T3, Sigma non-opioid intracellular receptor 1; experiment: Binding affinity to sigma 1 receptor (unknown origin) assessed as inhibition constant
[35] = molecular target: T2, Sigma intracellular receptor 2; experiment: Potency index, ratio of JVW-1601 Ki to test compound Ki for displacement of [3H]-ditolylguanidine from human sigma 2 receptor/TMEM97 transfected in HEK293 cells assessed as inhibition constant in the presence of (+)-pentazocine by competition binding assay; format: cell-based

CN(C(=O)OCc1ccccc1)C1CCCc2ccc(N3CCN(C4CCCCC4)CC3)cc21 (configuration not stated)
Ki [1]: 2.1 nM
Ki [2]: 16 nM
Ratio Ki [3]: 7.6

CCOC(=O)CN1CCN(c2ccc3c(c2)C(N(C)C(=O)OCc2ccccc2)CCC3)CC1 (configuration not stated)
Ki [1]: 894 nM
Ki [2]: > 10000 nM

CCCN1CCN(c2ccc3c(c2)C(N(CCCO)C(=O)OCc2ccccc2)CCC3)CC1 (configuration not stated)
Ki [2]: 254 nM
Ki [4]: 135 nM

CCCN1CCN(c2ccc3c(c2)C(N(CCCCCCCCCCCN)C(=O)OCc2ccccc2)CCC3)CC1 (configuration not stated)
Ki [1]: 16.6 nM

CCCN1CCN(c2ccc3c(c2)C(OC(=O)CCc2ccccc2)CCC3)CC1 (configuration not stated)
Ki [1]: 25 nM
Ki [2]: 33 nM

CCCN1CCN(c2ccc3c(c2)C(OC/C=C/c2ccccc2)CCC3)CC1 (configuration not stated)
Ki [2]: 140 nM
Ki [4]: 15 nM

CN(C(=O)OCc1ccccc1)C1CCCc2ccc(N3CCN(C4CCCC4)CC3)cc21 (configuration not stated)
Ki [1]: 2.1 nM
Ki [2]: 86 nM

CCCN1CCN(c2ccc3c(c2)C(OCc2ccccc2)CCC3)CC1 (configuration not stated)
Ki [1]: 50 nM
Ki [2]: 104 nM

CCCN1CCN(c2ccc3c(c2)C(N(CCC)C(=O)OCc2ccccc2)CCC3)CC1 (configuration not stated)
Ki [1]: 9.4 nM
Ki [2]: 199 nM

CCCN1CCN(c2ccc3c(c2)C(N(C)C(=O)OCc2ccccc2)CCC3)CC1 (configuration not stated)
Ki [5]: > 10000 nM
Ki [6]: > 10000 nM
Ki [7]: > 10000 nM
Ki [8]: > 10000 nM
Ki [9]: > 10000 nM
Ki [10]: > 10000 nM
Ki [11]: > 10000 nM
Ki [12]: > 10000 nM
Ki [13]: > 10000 nM
Ki [14]: > 10000 nM
Ki [15]: > 10000 nM
Ki [16]: > 10000 nM
Ki [17]: > 10000 nM
Ki [18]: > 10000 nM
Ki [19]: > 10000 nM
Ki [1]: 5.5 nM
Ki [2]: 200 nM
Ki [20]: > 10000 nM
Ki [21]: > 10000 nM
Ki [22]: > 10000 nM
Ratio Ki [3]: 36
Ratio Ki [23]: 6
Ratio Ki [24]: 2.5
Ki [4]: 33 nM
Ki [25]: 82 nM
Ki [26]: 8330 nM
Ki [27]: > 10000 nM
half-life [28]: 1.2 h
concentration at 4 h [29]: 104 nM
Kp at 4 h [30]: 2.8
Kp uu at 4 h [31]: 0.36
efflux ratio [32]: 1

CN(C(=O)OCc1ccccc1)C1CCCc2ccc(N3CCN(CCCO)CC3)cc21 (configuration not stated)
Ki [1]: 21 nM
Ki [2]: 474 nM

CCCN1CCN(c2ccc3c(c2)C(N(CC)C(=O)OCc2ccccc2)CCC3)CC1 (configuration not stated)
Ki [1]: 4.6 nM
Ki [2]: 321 nM

Clc1ccc2c(c1)C1CC2CCCN1CCc1ccccc1 (configuration not stated)
Ki [33]: 23 nM
Ki [34]: 248 nM

CC(C)N1CCN(c2ccc3c(c2)C(N(C)C(=O)OCc2ccccc2)CCC3)CC1 (configuration not stated)
Ki [1]: 8.3 nM
Ki [2]: 223 nM

CCN(CC)C(=O)CCN1CCN(c2ccc3c(c2)C(N(C)C(=O)OCc2ccccc2)CCC3)CC1 (configuration not stated)
Ki [1]: 7.2 nM
Ki [2]: 2100 nM

CCOC(=O)CCN1CCN(c2ccc3c(c2)C(N(C)C(=O)OCc2ccccc2)CCC3)CC1 (configuration not stated)
Ki [1]: 4.5 nM
Ki [2]: 1650 nM

CCCN1CCN(c2ccc3c(c2)C(N(CCC(=O)OCC)C(=O)OCc2ccccc2)CCC3)CC1 (configuration not stated)
Ki [2]: 187 nM
Ki [4]: 35 nM

CCCN1CCN(c2ccc3c(c2)C(N(C)C(=O)/C=C/c2ccccc2)CCC3)CC1 (configuration not stated)
Ki [4]: 9.6 nM
Ki [25]: 196 nM
Ratio Ki [35]: 3.4

CN1CCN(c2ccc3c(c2)C(N(C)C(=O)OCc2ccccc2)CCC3)CC1 (configuration not stated)
Ki [1]: 284 nM
Ki [2]: 2940 nM

CCN1CCN(c2ccc3c(c2)C(N(C)C(=O)OCc2ccccc2)CCC3)CC1 (configuration not stated)
Ki [1]: 35 nM
Ki [2]: 887 nM

CCCN1CCN(c2ccc3c(c2)C(N(C)C(=O)Cc2ccccc2)CCC3)CC1 (configuration not stated)
Ki [4]: 53 nM
Ki [25]: 188 nM

CCCN1CCN(c2ccc3c(c2)C(OCCCc2ccccc2)CCC3)CC1 (configuration not stated)
Ki [2]: 21 nM
Ki [4]: 17 nM

CCCN1CCN(c2ccc3c(c2)CCCC3N(C)C(=O)OCc2ccccc2)CC1 (configuration not stated)
Ki [1]: 13 nM
Ki [2]: 40 nM

CCCN1CCN(c2cccc3c2CCCC3N(C)C(=O)OCc2ccccc2)CC1 (configuration not stated)
Ki [1]: 26 nM
Ki [2]: 12 nM

COCCN1CCN(c2ccc3c(c2)C(N(C)C(=O)OCc2ccccc2)CCC3)CC1 (configuration not stated)
Ki [2]: 1050 nM
Ki [4]: 128 nM

CCCN1CCN(c2ccc3c(c2)C(N(C)C(=O)CCc2ccccc2)CCC3)CC1 (configuration not stated)
Ki [2]: 973 nM
Ki [4]: 17 nM
Ratio Ki [35]: 2

CN(C(=O)OCc1ccccc1)C1CCCc2ccc(N3CCN(C4CCC4)CC3)cc21 (configuration not stated)
Ki [1]: 12 nM
Ki [2]: 266 nM
Ratio Ki [3]: 41
